Data reported in BindingDB's records for PubMed 9618428 (Glaxo Wellcome Research and Development, 1998).
Several values for one entry are separate records, joined by “and”; a condition that tells them apart may be missing. Equal entries are not always repeated.

What was measured:
[1] = target: Melatonin receptor type 1A (Sus scrofa, UniProt O02781)
[2] = target: T1, Melatonin receptor type 1B (Homo sapiens, UniProt P49286)
T1 sequence (P49286 whole entry): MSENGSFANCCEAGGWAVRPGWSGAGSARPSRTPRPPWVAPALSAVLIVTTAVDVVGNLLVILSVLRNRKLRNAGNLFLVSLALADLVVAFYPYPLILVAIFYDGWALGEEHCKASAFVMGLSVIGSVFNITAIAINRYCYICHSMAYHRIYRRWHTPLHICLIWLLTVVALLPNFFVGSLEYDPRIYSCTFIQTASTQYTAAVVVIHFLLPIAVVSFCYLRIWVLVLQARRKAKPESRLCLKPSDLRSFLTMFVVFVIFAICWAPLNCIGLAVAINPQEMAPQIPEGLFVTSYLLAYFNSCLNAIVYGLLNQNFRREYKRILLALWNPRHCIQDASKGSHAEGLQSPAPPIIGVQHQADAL

[3] = target: Melatonin receptor type 1A (Homo sapiens, UniProt P48039)
Sequence of Melatonin receptor type 1A (Homo sapiens, UniProt P48039) (P48039 whole entry): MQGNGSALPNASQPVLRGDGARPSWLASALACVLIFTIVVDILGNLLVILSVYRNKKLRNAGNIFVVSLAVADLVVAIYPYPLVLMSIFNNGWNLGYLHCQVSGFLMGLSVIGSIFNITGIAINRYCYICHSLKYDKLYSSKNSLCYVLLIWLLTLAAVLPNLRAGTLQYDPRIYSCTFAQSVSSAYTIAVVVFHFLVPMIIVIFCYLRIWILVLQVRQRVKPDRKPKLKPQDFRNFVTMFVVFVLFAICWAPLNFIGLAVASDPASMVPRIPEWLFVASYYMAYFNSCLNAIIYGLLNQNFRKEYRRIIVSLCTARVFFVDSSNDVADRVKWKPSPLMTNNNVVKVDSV

Sequence of Melatonin receptor type 1A (Sus scrofa, UniProt O02781) (O02781 whole entry): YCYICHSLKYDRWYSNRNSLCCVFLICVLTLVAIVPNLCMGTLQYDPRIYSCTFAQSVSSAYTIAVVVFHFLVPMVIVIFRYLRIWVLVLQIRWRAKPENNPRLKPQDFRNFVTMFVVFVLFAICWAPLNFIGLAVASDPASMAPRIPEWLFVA

SMILES | Ki [1] | Ki [2] | Ki [3] [nM]
COc1ccc2[nH]c(I)c(CCNC(C)=O)c2c1 | 0.03 nM and 0.04 nM | – | –
COc1cc2c(CCNC(C)=O)c[nH]c2cc1Cl | 0.46 nM and 0.74 nM | – | –
COc1ccc2[nH]cc(CCNC(C)=O)c2c1 | 0.25 nM and 0.24 nM | – | –
CC(=O)NCCc1c(Cc2ccccc2)[nH]c2ccccc12 [CAS_117946-91-5] | 933 nM and 676 nM | – | –
CC(=O)NCCc1c[nH]c2ccc(O)cc12 [N-Acetyltryptamine,5-Hydroxy] | 398 nM and 347 nM | 302 nM and 148 nM | 79.4
CC(=O)NCCN1CCc2ccc3c(c21)CCO3 [NSC_5311134] | 0.61 nM and 0.33 nM | 0.16 nM | 0.14
COc1cc2c(CCNC(C)=O)c[nH]c2cc1O [melatonin, 6-Hydroxy] | 10.2 nM and 25.1 nM | 2.23 nM and 1.69 nM | 0.54
